Assay results taken from ChEMBL document CHEMBL4715814, “Design, synthesis and biological activity evaluation of novel 4-subtituted 2-naphthamide derivatives as AcrB inhibitors” (2018).
Calls of active or inactive are those of the source. The calls are words filed in the database; no cut-off is given here.

Assays:
Escherichia coli [1] = assay: Potentiation of chloramphenicol-induced antibacterial activity against wild type Escherichia coli BW25113 assessed as fold reduction in chloramphenicol MIC at 128 ug/ml incubated for 18 hrs under aerobic condition by checkerboard titration assay relative to chloramphenicol MIC alone; assay type: functional; details: dose 128 µg/ml
Cell membrane [2] = assay: Induction of outer membrane permeabilization in wild type Escherichia coli BW25113 assessed as increase in nitrocefin hydrolysis at 512 ug/ml measured for 30 mins in presence of CCCP by spectrophotometry analysis; assay type: subcellular; details: dose 512.0 µg/ml
Escherichia coli [3] = assay: Potentiation of TPP-induced antibacterial activity against AcrB deficient Escherichia coli BW25113 assessed as TPP MIC at 128 ug/ml incubated for 18 hrs under aerobic condition by checkerboard titration assay (reference value: 256 ug/ml); assay type: functional; details: dose 128 µg/ml
Escherichia coli [4] = assay: Potentiation of chloramphenicol-induced antibacterial activity against AcrB deficient Escherichia coli BW25113 assessed as chloramphenicol MIC at 128 ug/ml incubated for 18 hrs under aerobic condition by checkerboard titration assay (reference value: 2 ug/ml); assay type: functional; details: dose 128 µg/ml
Escherichia coli [5] = assay: Potentiation of chloramphenicol-induced antibacterial activity against AcrB deficient Escherichia coli BW25113 assessed as chloramphenicol MIC at 256 ug/ml incubated for 18 hrs under aerobic condition by checkerboard titration assay (reference value: 2 ug/ml); assay type: functional; details: dose 256 µg/ml
Escherichia coli [6] = assay: Potentiation of TPP-induced antibacterial activity against AcrB deficient Escherichia coli BW25113 assessed as TPP MIC at 256 ug/ml incubated for 18 hrs under aerobic condition by checkerboard titration assay (reference value: 256 ug/ml); assay type: functional; details: dose 256 µg/ml
Escherichia coli [7] = assay: Potentiation of erythromycin-induced antibacterial activity against AcrB deficient Escherichia coli BW25113 assessed as erythromycin MIC at 128 ug/ml incubated for 18 hrs under aerobic condition by checkerboard titration assay (reference value: 32 ug/ml); assay type: functional; details: dose 128 µg/ml
Escherichia coli [8] = assay: Potentiation of erythromycin-induced antibacterial activity against AcrB deficient Escherichia coli BW25113 assessed as erythromycin MIC at 256 ug/ml incubated for 18 hrs under aerobic condition by checkerboard titration assay (reference value: 32 ug/ml); assay type: functional; details: dose 256 µg/ml
Escherichia coli [9] = assay: Potentiation of TPP-induced antibacterial activity against wild type Escherichia coli BW25113 assessed as TPP MIC at 256 ug/ml incubated for 18 hrs under aerobic condition by checkerboard titration assay (reference value: 1024 ug/ml); assay type: functional; details: dose 256 µg/ml
Escherichia coli [10] = assay: Potentiation of TPP-induced antibacterial activity against wild type Escherichia coli BW25113 assessed as TPP MIC at 128 ug/ml incubated for 18 hrs under aerobic condition by checkerboard titration assay (reference value: 1024 ug/ml); assay type: functional; details: dose 128 µg/ml
Escherichia coli [11] = assay: Potentiation of chloramphenicol-induced antibacterial activity against wild type Escherichia coli BW25113 assessed as chloramphenicol MIC at 256 ug/ml incubated for 18 hrs under aerobic condition by checkerboard titration assay (reference value: 16 ug/ml); assay type: functional; details: dose 256 µg/ml
Escherichia coli [12] = assay: Potentiation of chloramphenicol-induced antibacterial activity against wild type Escherichia coli BW25113 assessed as chloramphenicol MIC at 128 ug/ml incubated for 18 hrs under aerobic condition by checkerboard titration assay (reference value: 16 ug/ml); assay type: functional; details: dose 128 µg/ml
Escherichia coli [13] = assay: Potentiation of rifampicin-induced antibacterial activity against wild type Escherichia coli BW25113 assessed as rifampicin MIC at 128 ug/ml incubated for 18 hrs under aerobic condition by checkerboard titration assay (reference value: 16 ug/ml); assay type: functional; details: dose 128 µg/ml
Escherichia coli [14] = assay: Potentiation of rifampicin-induced antibacterial activity against wild type Escherichia coli BW25113 assessed as rifampicin MIC at 256 ug/ml incubated for 18 hrs under aerobic condition by checkerboard titration assay (reference value: 16 ug/ml); assay type: functional; details: dose 256 µg/ml
Escherichia coli [15] = assay: Potentiation of erythromycin-induced antibacterial activity against wild type Escherichia coli BW25113 assessed as erythromycin MIC at 256 ug/ml incubated for 18 hrs under aerobic condition by checkerboard titration assay (reference value: 128 ug/ml); assay type: functional; details: dose 256 µg/ml
Escherichia coli [16] = assay: Potentiation of erythromycin-induced antibacterial activity against wild type Escherichia coli BW25113 assessed as erythromycin MIC at 128 ug/ml incubated for 18 hrs under aerobic condition by checkerboard titration assay (reference value: 128 ug/ml); assay type: functional; details: dose 128 µg/ml
Escherichia coli [17] = assay: Potentiation of erythromycin-induced antibacterial activity against wild type Escherichia coli BW25113 assessed as fold reduction in erythromycin MIC at 128 ug/ml incubated for 18 hrs under aerobic condition by checkerboard titration assay relative to erythromycin MIC alone; assay type: functional; details: dose 128 µg/ml
Escherichia coli [18] = assay: Potentiation of TPP-induced antibacterial activity against AcrB deficient Escherichia coli BW25113 assessed as TPP MIC at 512 ug/ml incubated for 18 hrs under aerobic condition by checkerboard titration assay (reference value: 256 ug/ml); assay type: functional; details: dose 512 µg/ml
Escherichia coli [19] = assay: Potentiation of erythromycin-induced antibacterial activity against AcrB deficient Escherichia coli BW25113 assessed as erythromycin MIC at 512 ug/ml incubated for 18 hrs under aerobic condition by checkerboard titration assay (reference value: 32 ug/ml); assay type: functional; details: dose 512 µg/ml
Escherichia coli [20] = assay: Potentiation of TPP-induced antibacterial activity against wild type Escherichia coli BW25113 assessed as TPP MIC at 512 ug/ml incubated for 18 hrs under aerobic condition by checkerboard titration assay (reference value: 1024 ug/ml); assay type: functional; details: dose 512 µg/ml
Escherichia coli [21] = assay: Potentiation of chloramphenicol-induced antibacterial activity against wild type Escherichia coli BW25113 assessed as chloramphenicol MIC at 512 ug/ml incubated for 18 hrs under aerobic condition by checkerboard titration assay (reference value: 16 ug/ml); assay type: functional; details: dose 512 µg/ml
Escherichia coli [22] = assay: Potentiation of erythromycin-induced antibacterial activity against wild type Escherichia coli BW25113 assessed as erythromycin MIC at 512 ug/ml incubated for 18 hrs under aerobic condition by checkerboard titration assay (reference value: 128 ug/ml); assay type: functional; details: dose 512 µg/ml
Escherichia coli [23] = assay: Potentiation of chloramphenicol-induced antibacterial activity against wild type Escherichia coli BW25113 assessed as fold reduction in chloramphenicol MIC at 256 ug/ml incubated for 18 hrs under aerobic condition by checkerboard titration assay relative to chloramphenicol MIC alone; assay type: functional; details: dose 256 µg/ml
Escherichia coli [24] = assay: Antibacterial activity against Wild type Escherichia coli BW25113 assessed as inhibition of AcrB efflux pump by mesuring the glucose-induced nile red efflux at 100 uM preincubated with CCCP for 15 mins followed by compound addition after 15 mins nile red added and incubated for 3 hrs in shaker by fluorimetric analysis; assay type: functional, organism-based; details: time 195.0 min
Cell membrane [25] = assay: Disruption of inner membrane potential in wild type Escherichia coli BW25113 at 512 ug/ml preincubated for 10 mins followed by glucose stimulation and CCCP addition by DiOC2 probe based fluorimetric analysis; assay type: subcellular; details: dose 512.0 µg/ml

| SMILES | Activity (Cell membrane [2]) | MIC (Escherichia coli [5]) [µg/mL] | MIC (Escherichia coli [9]) [µg/mL] | MIC (Escherichia coli [10]) [µg/mL] | MIC (Escherichia coli [11]) [µg/mL] | MIC (Escherichia coli [12]) [µg/mL] | MIC (Escherichia coli [13]) [µg/mL] | MIC (Escherichia coli [14]) [µg/mL] | MIC (Escherichia coli [15]) [µg/mL] | MIC (Escherichia coli [16]) [µg/mL] | also measured |
| --- | --- | --- | --- | --- | --- | --- | --- | --- | --- | --- | --- |
| CCCNC(=O)c1cc(OCCC(C)C)c2ccccc2c1 | inactive | 1 | 1020 | 1020 | 4 | 16 | 16 | 4 | 16 | 32 | fold change (FC) (Escherichia coli [1]): 4; MIC (Escherichia coli [3]): 256 µg/mL; MIC (Escherichia coli [4]): 2 µg/mL; MIC (Escherichia coli [6]): 256 µg/mL; MIC (Escherichia coli [7]): 32 µg/mL; MIC (Escherichia coli [8]): 16 µg/mL; fold change (FC) (Escherichia coli [17]): 4 |
| O=C(NCc1ccccc1)c1cc(OCc2ccccc2)c2ccccc2c1 | – | – | 1020 | – | 16 | – | – | 16 | 128 | – | MIC (Escherichia coli [18]): 256 µg/mL; MIC (Escherichia coli [19]): 32 µg/mL; MIC (Escherichia coli [20]): 1020 µg/mL; MIC (Escherichia coli [21]): 16 µg/mL; MIC (Escherichia coli [22]): 64 µg/mL |
| O=C(NCc1ccco1)c1cc(OCc2ccccc2)c2ccccc2c1 | inactive | 2 | 256 | 1020 | 2 | 16 | 16 | 4 | 128 | 128 | fold change (FC) (Escherichia coli [23]): 8; Activity (Escherichia coli [24]): Active; Activity (Cell membrane [25]): Active |
